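The compound was tested at five concentrations on cells cultured in 96-well plates, with a 48-hour exposure period. Here, GI50 denotes the concentration required for 50% inhibition of growth.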 Active and inactive are the calls of the source. Rule as the data show it: active = GI50 up to about 1.1 µM and inactive = higher.
Legend:
Test in all cases: inhibition of tumour cell growth, NCI panel, 48 h
786-0 = system: 786-0
ACHN = system: ACHN
BT-549 = system: BT-549
COLO 205 = system: COLO 205
HCT-116 = system: HCT-116
KM-20L2 = system: KM-20L2
LOX IMVI = system: LOX IMVI
MDA-N = system: MDA-N
NCI-H23 = system: NCI-H23
NCI-H460 = system: NCI-H460
OVCAR-3 = system: OVCAR-3
PC-3 = system: PC-3
SF-295 = system: SF-295
SK-MEL-5 = system: SK-MEL-5
SN12C = system: SN12C
U-251 = system: U-251
NCI-H522 = system: NCI-H522
NCI/ADR-RES = system: NCI/ADR-RES
SNB-19 = system: SNB-19
T47D = system: T47D

In the case of `C=C(CC(NC(=O)c1ccc(C(CC)Cc2cnc3nc(N)nc(N)c3n2)cc1)C(=O)O)C(=O)O` (stereo not given), the GI50 (786-0) is reported as 0.00174 µM (active), the GI50 (ACHN) is reported as 0.0184 µM (active) and the GI50 (BT-549) is reported as 0.0687 µM (active). For the same compound, the GI50 (COLO 205) was 0.0796 µM (active), the GI50 (HCT-116) was 0.00286 µM (active) and the GI50 (KM-20L2) was 0.01 µM (active). The GI50 (LOX IMVI) was 0.00436 µM (active), the GI50 (MDA-N) was 0.0462 µM (active) and the GI50 (NCI-H23) was 0.244 µM (active). The GI50 (NCI-H460) was 0.00589 µM (active), the GI50 (OVCAR-3) was 0.19 µM (active) and the GI50 (PC-3) was 0.0527 µM (active). The GI50 (SF-295) was 0.00113 µM (active), the GI50 (SK-MEL-5) was 0.0857 µM (active) and the GI50 (SN12C) was 0.0244 µM (active). For the same compound, the GI50 (U-251) was 0.152 µM (active).

For `CCC/N=C/c1c(O)c(O)c(C(C)C)c2cc(C)c(-c3c(C)cc4c(C(C)C)c(O)c(O)c(/C=N/CCC)c4c3O)c(O)c12`, the GI50 (786-0) was 10.2 µM (inactive), the GI50 (ACHN) was 3.99 µM (inactive) and the GI50 (COLO 205) was 5.25 µM (inactive). For the same compound, the GI50 (HCT-116) was 3.44 µM (inactive), the GI50 (KM-20L2) was 2.86 µM (inactive) and the GI50 (LOX IMVI) was 6.04 µM (inactive). For the same compound, the GI50 (MDA-N) was 8.63 µM (inactive), the GI50 (NCI-H23) was 6.1 µM (inactive) and the GI50 (NCI-H460) was 4.38 µM (inactive). The GI50 (NCI-H522) was 1.53 µM (inactive), the GI50 (NCI/ADR-RES) was 30.1 µM (inactive) and the GI50 (OVCAR-3) was 3.88 µM (inactive). The GI50 (PC-3) was 2.48 µM (inactive), the GI50 (SF-295) was 3.77 µM (inactive) and the GI50 (SK-MEL-5) was 18.7 µM (inactive). The GI50 (SN12C) was 10.4 µM (inactive), the GI50 (SNB-19) was 6.47 µM (inactive) and the GI50 (T47D) was 7.74 µM (inactive). For the same compound, the GI50 (U-251) was 2.07 µM (inactive).

`O=C(NCCCCCCNC(=O)n1cc(F)c(=O)[nH]c1=O)NCCCOCCOCCOCCOCCOCCOCCOCCOCCOCCOCCOCCOCCOCCOCCOCCOCCOCCOCCOCCOCCOCCCNC(=O)C(O)C(O)C(O)C(O)CO` (stereo not given) was tested, and the GI50 (786-0) was 26.6 µM (inactive), the GI50 (ACHN) was 26.7 µM (inactive) and the GI50 (BT-549) was 37.7 µM (inactive). The GI50 (COLO 205) was 23.8 µM (inactive), the GI50 (HCT-116) was 9.57 µM (inactive) and the GI50 (KM-20L2) was 22.5 µM (inactive). For the same compound, the GI50 (LOX IMVI) was 16.3 µM (inactive), the GI50 (MDA-N) was 33.9 µM (inactive) and the GI50 (NCI-H23) was 32.8 µM (inactive). For the same compound, the GI50 (NCI-H460) was 5.37 µM (inactive), the GI50 (NCI-H522) was > 90.2 µM (inactive) and the GI50 (NCI/ADR-RES) was 69.8 µM (inactive). The GI50 (OVCAR-3) was 55.5 µM (inactive), the GI50 (PC-3) was 64.3 µM (inactive) and the GI50 (SF-295) was 48.9 µM (inactive). For the same compound, the GI50 (SK-MEL-5) was 51.9 µM (inactive), the GI50 (SN12C) was 80 µM (inactive) and the GI50 (SNB-19) was 84.7 µM (inactive). For the same compound, the GI50 (T47D) was > 100 µM (inactive) and the GI50 (U-251) was 70.6 µM (inactive).

Reference: ChEMBL document CHEMBL1201862, “PubChem BioAssay data set” (2004)
